Key:
Type in all cases: in vivo, rat
[1] = test system: Sprague-Dawley rats; test: Resistance to retinal ischemia 1 h after intraperitoneal isotretinoin (scotopic ERG 1 week later); settings: isotretinoin 5 mg/kg i.p. in DMSO 1 h before 1 h ischemia (IOP 110 mmHg), 5 treated rats
Experimental: Purpose: To evaluate the efficacy of isotretinoin in the prevention of retinal functional loss following 1 h of ocular ischemia induced by elevation of the intraocular pressure beginning 1 h after the intraperitoneal administration of isotretinoin.
(§1) Material and methods: Of 12 Sprague-Dawley rats, 7 received intraperitoneal saline injection and 5 received intraperitoneal isotretinoin 5 mg/kg in dimethyl sulfoxide (DMSO) 1 h before intraocular pressure elevation during full anaesthesia using cannulation of the anterior chamber in one eye and infusion of balanced saline solution at a pressure of 110 mmHg. The fellow eye was not subjected to ischemia. The animals were kept in ambient room light before and during ischemia. Retinal function was assessed 1 week later by scotopic and mesopic full-field electroretinography (ERG). The study adhered to the ARVO resolution on animal welfare.

[2] = test system: Sprague-Dawley rats; test: Resistance to retinal ischemia 18 h after intraperitoneal isotretinoin (scotopic ERG 1 week later)
Experimental: Purpose: To evaluate the efficacy of isotretinoin in the prevention of retinal functional loss following 1 h ischemia induced by elevation of the intraocular pressure beginning 18 h after the intraperitoneal administration of isotretinoin.
as §1, with “methods: Intraperitoneal” for “methods: Of 12 Sprague-Dawley rats, 7 received intraperitoneal saline injection and 5 received intraperitoneal”, “(DMSO) was given to 6 Sprague-Dawley rats 18” for “(DMSO) 1”, “during general anesthesia” for “during full anaesthesia”

[3] = test system: rats; test: Retinal vessel diameter after intravitreal isotretinoin (digital fundus photography); settings: single intravitreal injection of isotretinoin 2.5 μg in 10 μl DMSO; 6 h later, dark adapted; 4 eyes; SD 4.2%; p=0.04 vs placebo
Experimental: Purpose: To assess the effect of intravitreal isotretinoin on retinal vessel diameters in rats, the vein diameter acting as a marker of retinal flow and metabolism.
Methods: In 6 animals, one eye received a single intravitreal injection of isotretinoin 2.5 μg in 10 μl dimethyl sulfoxide (DMSO). The fellow eye received a placebo injection of 10 μl DMSO. Retinal vessel diameter was recorded 6 h later in both eyes after the rats had dark adapted using digital fundus photography in red illumination and assessed using computerized image analysis. All procedures were performed in general anesthesia and the study adhered to the ARVO resolution on animal welfare.

[4] = test system: rats; test: Experimental retinal vein occlusion, blood-retina barrier permeability by vitreous fluorometry; settings: i.p. isotretinoin 5 mg/mild in DMSO for five days before examination, 14 days after photocoagulation; 7 rats; p<0.012
Experimental: Purpose: To assess the effect of isotretinoin on the integrity of the blood-retina barrier in experimental retinal vein occlusion. Material and methods: Occlusion of all retinal veins near the rim of the optic nerve head was induced by laser photocoagulation in 14 rats. Blood-retina barrier permeability was measured using vitreous fluorometry 2 weeks later. In 7 rats, intraperitoneal isotretinoin 5 mg/mild in dimethyl sulfoxide (DMSO) was administered for five days before the examination of vascular leakage 14 days after photocoagulation. The study adhered to the ARVO resolution on animal welfare.

CC1=C(/C=C/C(C)=C/C=C/C(C)=C\C(=O)O)C(C)(C)CCC1 [isotretinoin, 13-cis-retinoic acid] was tested, and the “animals with flat ERG, of 5 eyes subjected to ischemia” value [1] was 2 animals, the “animals with intact scotopic ERG, of 5 eyes subjected to ischemia” value [1] was 3 animals and the “eyes subjected to ischemia with normal scotopic ERG amplitudes” value ([2]; isotretinoin 5 mg/kg i.p. in DMSO 18 h before 1 h ischemia (IOP 110 mmHg), ERG 1 week later, 6 treated rats) was 6 eyes. The “scotopic ERG amplitudes” value ([2]; isotretinoin 5 mg/kg i.p. in DMSO 18 h before 1 h ischemia, eyes subjected to ischemia, 1 week after ischemia) was 60-120 μV, the “change in retinal vein diameter” value [3] was −9% and the “retinal vascular leakage compared to untreated animals” value [4] was “lower”.
